Assay [1] deals with TRE3G-GFP reporter gene. Nature of the assay: TRE3G-GFP reporter gene activation in HCT116, dCas9 + MS2-FKBP*x2 (F36V) system, flow cytometry. It counts as cell-based, human. Details: fold change, GFP: reference not given here. The note with it: for fold change, GFP: FIG. 5A; for fold change, GFP / fold change, GFP (TRE3G gRNA vs NT gRNA): 10 nM; for fold change, GFP (TRE3G gRNA vs NT gRNA): FIG. 1C, 48 hours; for % repress, GFP (no AP1867 vs AP1867 added): FIG. 1D. (Reporter assays use an easily measured gene product as a stand-in for the process of interest.)

In assay [2] the test system is CXCR4. The assay can be described thus: CXCR4 mRNA activation in HCT116 stably expressing dCas9 and MS2-FKBP*x2, qRT-PCR. Type of assay: cell-based, human. The note with it: FIG. 2C; 5 nM; 48 hrs. Here is the method: To further explore the activation potential of the SLF*-CEMa, their ability to target endogenous genes was evaluated (FIGS. 2A and 2B). Lentivirus was used to establish a stable HCT116 cell line expressing dCas9 and MS2-FKBP*x2 constructs, selecting for cells with antibiotic resistance. […] All CEMs were screened for their ability to activate the CXCR4 gene at 5 nM (FIG. 2C). RNA extraction and quantitative RT-PCR (qRT-PCR) were performed after 48 hours of CEM treatment.
To determine the optimal treatment concentration of the SLF*-CEMa molecules in this context, HCT116 cells were treated with 1 nM, 5 nM, 25 nM, and 50 nM of CEM203, CEM207, or CEM87. […] After 48 hours, RNA extraction followed by qRT-PCR was performed to evaluate the change in mRNA expression of CXCR4 (FIG. 2D). […] To directly compare this induced activation to other CRISPR-Cas9-based epigenetic activators, dCas9-VPR and dCas9-p300 constructs were virally infected into HCT116 cells and CXCR4 activation assessed in a similar fashion (FIGS. 2A and 2B).
To determine the time at which SLF*-CEMa most effectively induces gene activation, CXCR4 gene expression changes over time were investigated in dCas9 and MS2-FKBP*x2 stably infected HCT116 cells. Cells were treated with either vehicle, […] (FIG. 3A). RNA extraction and qRT-PCR were performed at 12, 24, 48, 72, and 96 hrs time points (FIG. 3B).
To investigate if endogenous gene activation triggered by the SLF*-CEMa compounds is also reversible, HCT116 cells were treated with CEM203 (50 nM) or CEM207 (25 nM) for 24 hours after transfecting CXCR4 gRNA, and then the CEMs were removed by media exchange at various time points. […] Likewise, it was investigated whether treatment with excess AP1867 could further reverse gene activation, potentially in a more robust fashion than with washout alone if there is any remaining intracellular SLF*-CEMa. To test this, after 24 hours of SLF*-CEMa treatment, a media exchange containing 20 μM AP1867 was performed (FIGS. 3C and 3D).
RNA extraction and qRT-PCR. All RNA extraction experiments were conducted in 12-well plate format. Culturing medium was removed, and cells were washed with 1×PBS, following with 0.05% trypsin to disassociate. After being quenched by medium and centrifuged, cells were washed with 1×PBS, and the RNA extraction was performed by using RNeasy Plus Mini kit (Qiagen, 74134). RT-qPCR was conducted by using RNA-to CT 1-step kit (Thermo Fisher Scientific, 4389986). The primer sets used in quantifying each gene can be found in Table 4.

Regarding `CC[C@H](C(=O)N1CCCC[C@H]1C(=O)O[C@H](CCc1ccc(OC)c(OC)c1)c1cccc(OCC(=O)NCCOCCOCCOCCOCCOCCOCCOCCNC(=O)C[C@@H]2N=C(c3ccc(Cl)cc3)c3c(sc(C)c3C)-n3c(C)nnc32)c1)c1cc(OC)c(OC)c(OC)c1` [CEM212, (R)-1-(3-((29-((S)-4-(4-Chlorophenyl)-2,3,9-trimethyl-6H-thieno[3,2-f][1,2,4]triazolo[4,3-a][1,4]diazepin-6-yl)-2,28-dioxo-6,9,12,15,18,21,24-heptaoxa-3,27-diazanonacosyl)oxy)phenyl)-3-(3,4-dimethoxyphenyl) propyl(S)-1-((S)-2-(3,4,5-trimethoxyphenyl)butanoyl) piperidine-2-carboxylate], the “fold change, GFP” value in assay [1] (NT gRNA, 48 hrs) is on record as 0.4 fold; in assay [1] (TRE3G gRNA, 48 hrs), 6.1 fold. In addition, in assay [2], the “fold change, CXCR4 mRNA (Treated vs Non-Treated)” value is reported as 12.6 fold.

Consider `CC[C@H](C(=O)N1CCCC[C@H]1C(=O)O[C@H](CCc1ccc(OC)c(OC)c1)c1cccc(OCC(=O)NCCOCCOCCOCCOCCOCCOCCNC(=O)C[C@@H]2N=C(c3ccc(Cl)cc3)c3c(sc(C)c3C)-n3c(C)nnc32)c1)c1cc(OC)c(OC)c(OC)c1` [CEM211, (R)-1-(3-((26-((S)-4-(4-Chlorophenyl)-2,3,9-trimethyl-6H-thieno[3,2-f][1,2,4]triazolo[4,3-a][1,4]diazepin-6-yl)-2,25-dioxo-6,9,12,15,18,21-hexaoxa-3,24-diazahexacosyl)oxy)phenyl)-3-(3,4-dimethoxyphenyl) propyl(S)-1-((S)-2-(3,4,5-trimethoxyphenyl)butanoyl) piperidine-2-carboxylate], for which the “fold change, GFP” value in assay [1] (NT gRNA, 48 hrs) is recorded as 0.4 fold; in assay [1] (TRE3G gRNA, 48 hrs) it was 7.8 fold. The “fold change, CXCR4 mRNA (Treated vs Non-Treated)” value in assay [2] turned out to be 8.5 fold.

Regarding `CCNC(=O)C[C@@H]1N=C(c2ccc(Cl)cc2)c2cc(OC)ccc2-n2c(C)nnc21` [iBET762, reference compound], the “fold change, GFP (TRE3G gRNA vs NT gRNA)” value in assay [1] came out at 2.4 fold.

Consider `CC[C@H](C(=O)N1CCCC[C@H]1C(=O)O[C@H](CCc1ccc(OC)c(OC)c1)c1cccc(OCC(=O)NCCOCCOCCOCCOCCOCCNC(=O)C[C@@H]2N=C(c3ccc(Cl)cc3)c3c(sc(C)c3C)-n3c(C)nnc32)c1)c1cc(OC)c(OC)c(OC)c1` [CEM210, (R)-1-(3-((23-((S)-4-(4-Chlorophenyl)-2,3,9-trimethyl-6H-thieno[3,2-f][1,2,4]triazolo[4,3-a][1,4]diazepin-6-yl)-2,22-dioxo-6,9,12,15,18-pentaoxa-3,21-diazatricosyl)oxy)phenyl)-3-(3,4-dimethoxyphenyl) propyl(S)-1-((S)-2-(3,4,5-trimethoxyphenyl)butanoyl) piperidine-2-carboxylate], for which the “fold change, GFP” value is given as 0.4 fold in assay [1] (NT gRNA, 48 hrs) and 8.5 fold in assay [1] (TRE3G gRNA, 48 hrs). The “fold change, CXCR4 mRNA (Treated vs Non-Treated)” value in assay [2] stood at 12.0 fold.

With `CC[C@H](C(=O)N1CCCC[C@H]1C(=O)O[C@H](CCc1ccc(OC)c(OC)c1)c1cccc(OCC(=O)NCCOCCOCCOCCOCCNC(=O)C[C@@H]2N=C(c3ccc(Cl)cc3)c3c(sc(C)c3C)-n3c(C)nnc32)c1)c1cc(OC)c(OC)c(OC)c1` [CEM209, (R)-1-(3-((20-((S)-4-(4-Chlorophenyl)-2,3,9-trimethyl-6H-thieno[3,2-f][1,2,4]triazolo[4,3-a][1,4]diazepin-6-yl)-2,19-dioxo-6,9,12,15-tetraoxa-3,18-diazaicosyl)oxy)phenyl)-3-(3,4-dimethoxyphenyl) propyl(S)-1-((S)-2-(3,4,5-trimethoxyphenyl)butanoyl) piperidine-2-carboxylate], the “fold change, GFP” value in assay [1] (NT gRNA, 48 hrs) is 0.5 fold; in assay [1] (TRE3G gRNA, 48 hrs) it was 4.3 fold. In assay [2], the “fold change, CXCR4 mRNA (Treated vs Non-Treated)” value was 11.1 fold.

For `CC[C@H](C(=O)N1CCCC[C@H]1C(=O)O[C@H](CCc1ccc(OC)c(OC)c1)c1cccc(OCC(=O)NCCOCCOCCOCCNC(=O)C[C@@H]2N=C(c3ccc(Cl)cc3)c3c(sc(C)c3C)-n3c(C)nnc32)c1)c1cc(OC)c(OC)c(OC)c1` [CEM208, (R)-1-(3-((17-((S)-4-(4-Chlorophenyl)-2,3,9-trimethyl-6H-thieno[3,2-f][1,2,4]triazolo[4,3-a][1,4]diazepin-6-yl)-2,16-dioxo-6,9,12-trioxa-3,15-diazaheptadecyl)oxy)phenyl)-3-(3,4-dimethoxyphenyl) propyl(S)-1-((S)-2-(3,4,5-trimethoxyphenyl)butanoyl) piperidine-2-carboxylate], the “fold change, GFP” value in assay [1] (NT gRNA, 48 hrs) stood at 0.4 fold; in assay [1] (TRE3G gRNA, 48 hrs) it was 8.1 fold. The “fold change, CXCR4 mRNA (Treated vs Non-Treated)” value in assay [2] worked out at 11.5 fold.

For the compound `CC[C@H](C(=O)N1CCCC[C@H]1C(=O)O[C@H](CCc1ccc(OC)c(OC)c1)c1cccc(OCC(=O)NCCOCCOCCNC(=O)C[C@@H]2N=C(c3ccc(Cl)cc3)c3cc(OC)ccc3-n3c(C)nnc32)c1)c1cc(OC)c(OC)c(OC)c1` [CEM201, (1R)-1-(3-((14-((4S)-6-(4-Chlorophenyl)-8-methoxy-1-methyl-4H-benzo[f][1,2,4]triazolo[4,3-a][1,4]diazepin-4-yl)-2,13-dioxo-6,9-dioxa-3,12-diazatetradecyl)oxy)phenyl)-3-(3,4-dimethoxyphenyl) propyl (2S)-1-((S)-2-(3,4,5-trimethoxyphenyl)butanoyl) piperidine-2-carboxylate], the “fold change, GFP” value in assay [1] (NT gRNA, 48 hrs) was 0.6 fold; in assay [1] (TRE3G gRNA, 48 hrs), 8.2 fold. Also, the “fold change, CXCR4 mRNA (Treated vs Non-Treated)” value in assay [2] is 5.8 fold.

With `CC[C@H](C(=O)N1CCCC[C@H]1C(=O)O[C@H](CCc1ccc(OC)c(OC)c1)c1cccc(OCC(=O)NCCOCCOCCOCCOCCOCCNC(=O)C[C@@H]2N=C(c3ccc(Cl)cc3)c3cc(OC)ccc3-n3c(C)nnc32)c1)c1cc(OC)c(OC)c(OC)c1` [CEM204, (1R)-1-(3-((23-((4S)-6-(4-Chlorophenyl)-8-methoxy-1-methyl-4H-benzo[f][1,2,4]triazolo[4,3-a][1,4]diazepin-4-yl)-2,22-dioxo-6,9,12,15,18-pentaoxa-3,21-diazatricosyl)oxy)phenyl)-3-(3,4-dimethoxyphenyl) propyl (2S)-1-((S)-2-(3,4,5-trimethoxyphenyl)butanoyl) piperidine-2-carboxylate], the “fold change, GFP” value in assay [1] (NT gRNA, 48 hrs) is 0.3 fold; in assay [1] (TRE3G gRNA, 48 hrs) it was 5.7 fold. Further, in assay [2], the “fold change, CXCR4 mRNA (Treated vs Non-Treated)” value is 7.2 fold.

`CC[C@H](C(=O)N1CCCC[C@H]1C(=O)O[C@H](CCc1ccc(OC)c(OC)c1)c1cccc(OCC(=O)O)c1)c1cc(OC)c(OC)c(OC)c1` [AP1867, reference compound]: in assay [1], the “fold change, GFP (TRE3G gRNA vs NT gRNA)” value is reported as 1.4 fold. In addition, the “% repress, GFP (no AP1867 vs AP1867 added)” value in assay [1] (TRE3G gRNA, CEM207 5 nM + AP1867 5 μM) came to 45%; in assay [1] (TRE3G gRNA, CEM207 5 nM + AP1867 10 μM), 84%; in assay [1] (TRE3G gRNA, CEM207 5 nM + AP1867 20 μM), 91%. Moreover, the “fold change, GFP (no AP1867 vs AP1867 added)” value in assay [1] (FIG. 5B, TRE3G gRNA, CEM207 5 nM + AP1867 500 nM, 48 hrs) was “No change in GFP expression”.

The values above are taken from patent publication US20250177566A1, “USE OF CHEMICAL EPIGENETIC MODIFIERS TO MODULATE GENE EXPRESSION” (The University of North Carolina at Chapel Hill, priority 2022, published 2025).
